Source: patent publication US20240397979A1, “METHODS FOR DELIVERING BENEFICIAL NUTRIENTS TO INVERTEBRATES THROUGH A MICROORGANISM DEFICIENT IN ANTINUTRIENTS” (APIX BIOSCIENCES, priority 2021, published 2024)

Experiments:
Nosema ceranae = assay: Nosema infection of bees fed ergosterol-containing diet; assay type: in vivo; settings: diet supplemented with ergosterol, FIG. 5
Excerpt: Method: Newly emerged adult worker honey bees (Apis mellifera) or adult worker bumble bees (Bombus terrestris) were reared in an assay to test whether diet induced an increase in Nosema ceranae infection. Bees had access to a diet composed of 15% protein, 6% fat, 78% carbohydrates and 1% vitamins and minerals and adlibitum access to water and sucrose solution. One treatment diet contained the ergosterol and the other contained no sterol. Newly emerged bees were removed from the brood frame and cohorts of 30 bees per replicate were housed in plastic rearing cages. In all experiments, 10 cohorts of ˜30 bees each were used for each treatment group. Consumption of each diet was measured every 24 h for 14 days.
Nosema ceranae infection of each cohort was produced as in Tischler et al. (2017). Briefly, Nosema spores were collected in 10 bees, concentrated and cultured. Cultures were added to 30% sucrose solutions and fed to the bees.

[1] = test system: adult worker honey bees (Apis mellifera) or adult worker bumble bees (Bombus terrestris); assay: Two-choice preference assay: diet with ergosterol vs diet with no sterol; assay type: in vivo; settings: feed containing ergosterol vs food without it, FIG. 1
Method: Example 1. Preference Assay: Bees Avoid Ergosterol in Foods Method: Newly emerged adult worker honey bees (Apis mellifera) or adult worker bumble bees (Bombus terrestris) were tested in a two-choice preference assay in which bees had access to two diets and adlibitum access to water. One treatment diet contained the ergosterol and the other contained no sterol. Newly emerged bees were removed from the brood frame and cohorts of 30 bees per replicate were housed in plastic rearing cages. In all experiments, 10 cohorts of ˜30 bees each were used for each treatment group. In all diets carbohydrate was maintained at 60% using powdered sugar and fat was maintained at 8% using an emulsion. Consumption of each diet was measured every 24 h for 5 days. Preference index was calculated as (amount of treatment consumed-amount of control consumed)/(total amount of food consumed).

bee gut = assay: Passage of dietary ergosterol across the bee gut; assay type: in vivo; settings: ergosterol in bee diet
adult worker honey bees = assay: Survival of bee cohorts on diets containing ergosterol; assay type: in vivo, Apis mellifera; settings: bees fed diets containing ergosterol, FIG. 2
Excerpt: Example 2: Survival: Bees are Less Likely to Survive on Diets Containing Ergosterol Method: Newly emerged adult worker honey bees fed with a diet treatment and ad libitum access to water. The treatment diet contained the ergosterol. Newly-emerged bees were removed from the brood frame and cohorts of 30 bees per replicate were housed in plastic rearing cages. In all experiments, 10 cohorts of ˜30 bees each were used for each treatment group. In all diets carbohydrate was maintained at 60% using powdered sugar and fat was maintained at 8% using an emulsion. Consumption of each diet was measured every day over the course of the experiment. The number of bees alive in the box was counted each day for 14 days.

honey bees = assay: Brood production of honey bee colonies on diets with ergosterol; assay type: in vivo, Apis mellifera; settings: bee food with ergosterol vs without, FIGS. 3 and 4
Method: Example 3 and 4. Brood Production: Honey Bees Cannot Produce Brood on Diets with high quantities of ergosterol Method: Fully functional insulated styrofoam […] nucs comprised 5 mini frames populated with adult workers and 1 mated laying queen bee were populated with 300-400 ml of young adult workers ( N<1,000 bees of mixed ages). […] Each treatment was tested with 3-6 colonies; each colony was fed with a 60-100 g patty (solid diet) on the top feeder fitted with a mesh floor. Diet was fed on the first day and again on day 6; the quantity consumed was measured on day 6 and day 15. If no larvae or eggs/queen are observed by day 6 then the experiment is terminated. The number of capped brood cells was counted every 15 days. The number of bee seams was estimated during each inspection. Sugar syrup (34%) and water was provided in feeders inside the tent to prevent carbohydrate starvation and to stimulate foraging activity.

CC(C)[C@@H](C)/C=C/[C@@H](C)[C@H]1CC[C@H]2C3=CC=C4C[C@@H](O)CC[C@]4(C)[C@H]3CC[C@]12C [ergosterol]
Nosema population in the gut (Nosema ceranae): increases the Nosema population in the gut
Mortality (Nosema ceranae; bees inoculated with Nosema ceranae): higher mortality
Diet preference [1]: bees actively avoid feed containing ergosterol
Crossing of the bee gut (bee gut): does not cross the bee gut
Lifespan (adult worker honey bees): shorter lifespans
Brood production (honey bees): less brood
